ChEMBL document CHEMBL1201862, “PubChem BioAssay data set” (2004)
Activity calls are given as the source filed them.

Key:
[1] = viability of uninfected HEp-2 cells – cell-based, HTS, cytotoxicity control for RSV inhibitor project, dose response (AID 2410); type: functional; settings: human respiratory syncytial virus
[2] = Trypanosoma cruzi growth suppression in host cells – NIH3T3 host cells, beta-gal luminescence, confirmation (AID 2044); type: functional, cell-based;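 further: intracellular parasites grown in NIH/3T3 mouse fibroblasts as host cells; luminescent beta-galactosidase reporter signal from transgenic T. cruzi replicating inside host cells; inhibitors lower the luminescence signal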
[3] = NIH3T3 cell viability loss – ATP luminescence, mouse fibroblasts, counter-screen, dose response (AID 2010); type: functional, cell-based;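 further: cells exposed to compound for about 90 hours before reading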
[4] = molecular target: T1, Corticotropin-releasing factor receptor 2/Corticotropin-releasing factor-binding protein (Homo sapiens, UniProt P24387+Q13324); assay: activators of CRF receptor 2 with binding protein – uHTS hits, confirmation (AID 602473); type: functional; settings: read-out: EC50_Mean
T1 sequence (Q13324 whole entry): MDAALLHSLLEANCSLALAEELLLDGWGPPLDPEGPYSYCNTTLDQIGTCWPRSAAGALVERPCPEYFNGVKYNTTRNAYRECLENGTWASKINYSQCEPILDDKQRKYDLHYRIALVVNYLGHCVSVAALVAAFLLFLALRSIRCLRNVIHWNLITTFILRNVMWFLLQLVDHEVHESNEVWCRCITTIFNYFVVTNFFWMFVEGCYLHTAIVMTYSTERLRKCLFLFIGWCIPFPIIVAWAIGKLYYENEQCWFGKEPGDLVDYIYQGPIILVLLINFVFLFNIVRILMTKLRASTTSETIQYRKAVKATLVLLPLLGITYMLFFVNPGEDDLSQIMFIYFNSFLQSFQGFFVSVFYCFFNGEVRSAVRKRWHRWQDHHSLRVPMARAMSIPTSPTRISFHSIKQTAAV
T1 sequence (P24387 whole entry): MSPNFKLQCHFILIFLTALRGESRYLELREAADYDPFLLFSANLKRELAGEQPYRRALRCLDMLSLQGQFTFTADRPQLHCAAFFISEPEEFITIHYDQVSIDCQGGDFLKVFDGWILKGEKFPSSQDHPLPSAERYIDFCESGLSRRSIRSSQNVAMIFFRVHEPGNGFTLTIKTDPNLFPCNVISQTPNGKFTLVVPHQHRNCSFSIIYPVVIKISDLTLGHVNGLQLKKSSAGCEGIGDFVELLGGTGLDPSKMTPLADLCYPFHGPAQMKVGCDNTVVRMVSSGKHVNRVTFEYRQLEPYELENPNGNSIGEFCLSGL

Cytochrome P450 2C9 = Cytochrome P450 2C9 (Homo sapiens, UniProt P11712)
Cytochrome P450 1A2 = molecular target: T2, Cytochrome P450 1A2 (Homo sapiens, UniProt P05177);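 further: PubChem cytochrome P450 panel assay, CYP1A2 panel member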
T2 sequence (P05177 whole entry): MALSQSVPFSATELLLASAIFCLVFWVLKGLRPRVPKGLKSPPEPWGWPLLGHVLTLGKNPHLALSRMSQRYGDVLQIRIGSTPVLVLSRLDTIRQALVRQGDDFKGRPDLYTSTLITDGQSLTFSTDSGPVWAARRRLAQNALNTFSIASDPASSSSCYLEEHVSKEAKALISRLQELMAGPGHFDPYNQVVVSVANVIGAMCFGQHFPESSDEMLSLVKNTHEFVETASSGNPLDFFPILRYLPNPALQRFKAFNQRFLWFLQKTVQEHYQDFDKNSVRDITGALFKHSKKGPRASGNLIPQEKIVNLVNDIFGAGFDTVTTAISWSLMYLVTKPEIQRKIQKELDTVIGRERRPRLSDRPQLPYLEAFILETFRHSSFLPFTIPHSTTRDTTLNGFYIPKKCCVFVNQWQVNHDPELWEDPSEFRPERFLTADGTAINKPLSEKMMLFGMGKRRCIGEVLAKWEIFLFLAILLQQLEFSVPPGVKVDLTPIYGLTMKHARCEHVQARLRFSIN

Cytochrome P450 2D6 = Cytochrome P450 2D6 (Homo sapiens, UniProt P10635);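 further: CYP2D6 member of a cytochrome P450 panel assay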
Cytochrome P450 2C19 = Cytochrome P450 2C19 (Homo sapiens, UniProt P33261); assay: Cytochrome panel assay with activity outcomes. Panel member name: p450-cyp2c19 Compounds with AC50 equal or less than 10 uM are considered active; type: functional; settings: read-out: AC50
[5] = molecular target: T3, Heat shock factor protein 1 (Mus musculus, UniProt P38532); assay: enhancement of HSF1-driven luciferase signal – cell-based, NIH3T3, luminescence, dose retest, confirmation (AID 435004); type: functional;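 further: stress induced by proteasome inhibitor MG132 added 30 min after compound; luciferase reporter driven by HSF1 response element in NIH3T3 cells; actives raise luminescence as potentiators of the MG132 stress response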
T3 sequence (P38532 whole entry): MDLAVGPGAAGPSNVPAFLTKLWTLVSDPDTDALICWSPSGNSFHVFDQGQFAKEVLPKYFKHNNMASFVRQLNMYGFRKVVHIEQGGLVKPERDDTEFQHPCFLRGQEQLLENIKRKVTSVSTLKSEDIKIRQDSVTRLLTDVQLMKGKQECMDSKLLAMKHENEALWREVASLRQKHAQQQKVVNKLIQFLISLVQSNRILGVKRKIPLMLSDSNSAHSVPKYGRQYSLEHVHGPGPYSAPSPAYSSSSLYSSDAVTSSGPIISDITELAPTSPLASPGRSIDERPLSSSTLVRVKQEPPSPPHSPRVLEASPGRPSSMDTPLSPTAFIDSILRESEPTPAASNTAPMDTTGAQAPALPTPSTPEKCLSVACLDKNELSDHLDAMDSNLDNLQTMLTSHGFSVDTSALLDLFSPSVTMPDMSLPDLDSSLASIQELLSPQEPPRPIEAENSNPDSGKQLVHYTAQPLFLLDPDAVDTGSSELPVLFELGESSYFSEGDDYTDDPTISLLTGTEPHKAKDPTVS

[6] = molecular target: T4, Zinc finger protein mex-5 (Caenorhabditis elegans, UniProt Q9XUB2); assay: potency of MEX-5 RNA-binding blockers – biochemical, C. elegans, fluorescence polarization, dose response (AID 1960)
T4 sequence (Q9XUB2 whole entry): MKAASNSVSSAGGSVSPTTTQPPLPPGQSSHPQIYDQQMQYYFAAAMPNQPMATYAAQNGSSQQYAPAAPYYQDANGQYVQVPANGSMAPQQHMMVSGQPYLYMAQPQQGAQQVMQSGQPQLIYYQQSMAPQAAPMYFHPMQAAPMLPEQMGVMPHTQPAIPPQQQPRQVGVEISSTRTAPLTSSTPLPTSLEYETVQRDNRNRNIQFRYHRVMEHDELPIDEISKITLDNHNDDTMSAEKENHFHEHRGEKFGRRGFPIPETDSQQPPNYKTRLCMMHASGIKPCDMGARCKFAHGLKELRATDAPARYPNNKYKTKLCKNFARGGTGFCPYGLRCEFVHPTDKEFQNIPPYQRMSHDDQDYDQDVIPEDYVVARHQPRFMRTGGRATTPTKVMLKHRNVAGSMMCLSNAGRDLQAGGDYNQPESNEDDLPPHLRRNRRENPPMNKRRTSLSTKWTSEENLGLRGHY

[7] = molecular target: T5, RNA-binding protein pos-1 (Caenorhabditis elegans, UniProt G5EF15); assay: disruptors of C. elegans POS-1 RNA interaction – biochemical, fluorescence polarization, dose response (AID 1964);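 further: purified POS-1 fused to maltose binding protein made in E. coli; potency of compounds blocking POS-1 binding to fluorescent RNA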
T5 sequence (G5EF15 whole entry): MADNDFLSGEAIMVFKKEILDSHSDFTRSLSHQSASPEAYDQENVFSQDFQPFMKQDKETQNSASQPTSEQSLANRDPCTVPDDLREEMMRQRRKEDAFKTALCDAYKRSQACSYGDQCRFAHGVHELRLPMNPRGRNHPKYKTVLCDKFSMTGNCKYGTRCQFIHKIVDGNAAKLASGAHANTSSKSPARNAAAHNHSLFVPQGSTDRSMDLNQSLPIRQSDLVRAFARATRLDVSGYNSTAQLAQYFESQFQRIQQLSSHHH

Cytochrome P450 2D6, sequence (P10635 whole entry): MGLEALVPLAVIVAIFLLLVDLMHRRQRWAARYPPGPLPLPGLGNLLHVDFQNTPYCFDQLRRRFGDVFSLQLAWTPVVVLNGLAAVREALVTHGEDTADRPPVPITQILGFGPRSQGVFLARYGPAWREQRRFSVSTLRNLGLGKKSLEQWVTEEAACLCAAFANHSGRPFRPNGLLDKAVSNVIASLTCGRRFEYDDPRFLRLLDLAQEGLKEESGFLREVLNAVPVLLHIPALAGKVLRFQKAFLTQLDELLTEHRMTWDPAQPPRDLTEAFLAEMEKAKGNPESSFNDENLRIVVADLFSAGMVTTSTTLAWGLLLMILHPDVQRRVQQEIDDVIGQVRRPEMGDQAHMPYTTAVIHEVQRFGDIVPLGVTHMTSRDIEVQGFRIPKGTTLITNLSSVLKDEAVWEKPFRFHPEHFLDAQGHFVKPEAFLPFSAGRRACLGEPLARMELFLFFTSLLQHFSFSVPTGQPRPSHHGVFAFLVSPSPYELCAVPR
Cytochrome P450 2C19, sequence (P33261 whole entry): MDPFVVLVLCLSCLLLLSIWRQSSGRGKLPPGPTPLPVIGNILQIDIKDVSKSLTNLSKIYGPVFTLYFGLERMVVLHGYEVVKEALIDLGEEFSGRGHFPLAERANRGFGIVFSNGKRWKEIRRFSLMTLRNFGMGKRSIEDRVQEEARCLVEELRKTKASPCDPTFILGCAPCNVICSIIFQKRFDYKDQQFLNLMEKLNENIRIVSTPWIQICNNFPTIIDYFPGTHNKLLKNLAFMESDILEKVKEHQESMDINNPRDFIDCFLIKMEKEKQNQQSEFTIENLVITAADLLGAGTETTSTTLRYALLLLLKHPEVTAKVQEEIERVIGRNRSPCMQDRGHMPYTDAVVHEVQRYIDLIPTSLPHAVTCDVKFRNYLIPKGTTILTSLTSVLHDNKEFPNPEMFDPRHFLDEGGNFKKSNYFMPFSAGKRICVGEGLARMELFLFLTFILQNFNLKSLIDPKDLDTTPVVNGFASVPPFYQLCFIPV
Cytochrome P450 2C9, sequence (P11712 whole entry): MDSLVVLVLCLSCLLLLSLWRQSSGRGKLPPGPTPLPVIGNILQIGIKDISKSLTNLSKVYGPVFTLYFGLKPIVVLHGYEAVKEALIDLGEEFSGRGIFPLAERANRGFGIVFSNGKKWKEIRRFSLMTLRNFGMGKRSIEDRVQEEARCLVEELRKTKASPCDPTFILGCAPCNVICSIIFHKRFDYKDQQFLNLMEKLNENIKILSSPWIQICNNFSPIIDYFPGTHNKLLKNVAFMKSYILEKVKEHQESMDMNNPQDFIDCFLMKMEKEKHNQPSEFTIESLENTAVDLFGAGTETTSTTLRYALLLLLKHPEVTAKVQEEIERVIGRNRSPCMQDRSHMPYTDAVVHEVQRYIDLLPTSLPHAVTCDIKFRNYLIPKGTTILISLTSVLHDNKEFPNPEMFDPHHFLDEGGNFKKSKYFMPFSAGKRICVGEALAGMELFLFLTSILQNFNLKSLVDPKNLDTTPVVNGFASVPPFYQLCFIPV

| SMILES | CC50 [1] | AC50 (Cytochrome P450 2C9) | also measured |
| --- | --- | --- | --- |
| CCN(CC)Cc1c(C(=O)N/N=C/c2cccc(OCc3cccc(Cl)c3)c2)nnn1-c1nonc1N | 18.3 µM (active) | – | – |
| CC(C)(C)NC(=O)C(c1ccncc1)N(Cc1ccc(F)cc1)C(=O)c1ccc(-c2ccccc2)[nH]1 (stereo not drawn) | 14.6 µM (active) | – | EC50 [2]: 0.681 µM (active); EC50 [3]: > 60 µM (inconclusive) |
| Cc1ccc(-c2ccc(/C=N/n3cnnc3)o2)cc1Cl | 49.7 µM (active) | – | – |
| COC(=O)COc1ccc(Oc2nc(SC)nc(N(C)C)n2)nn1 | – | – | EC50 [4]: > 53 µM (inactive) |
| CC(C(=O)Nc1ccc2c(c1)OCCO2)c1ccc([N+](=O)[O-])cc1 (stereo not drawn) | – | – | EC50 [4]: 10.7 µM (active) |
| CCOC(=O)/C(C#N)=C(C)/C=C1\Sc2ccccc2N1CC | – | – | EC50 [4]: 18.4 µM (active) |
| O=C(CCN1CCCCC1)c1csc2ccccc12 | – | 3.16 µM (inconclusive) | AC50 (Cytochrome P450 1A2): 3.16 µM (inconclusive) |
| O=C(CSCc1c(Cl)cccc1Cl)NCc1cccnc1 | – | 7.94 µM (inconclusive) | – |
| CCOc1ccccc1C1CC(c2cccc(NS(C)(=O)=O)c2)=NN1C(=O)c1ccccc1 (stereo not drawn) | 35.5 µM (active) | – | – |
| CCc1nnc(S)n1/N=C/c1ccc2c(c1)OCO2 | – | 35.5 µM (inconclusive) | AC50 (Cytochrome P450 2D6): 22.4 µM (inconclusive) |
| COc1ccc2[nH]c(SCC(=O)c3ccco3)nc2c1 | – | 31.6 µM (inconclusive) | AC50 (Cytochrome P450 2D6): 17.8 µM (inconclusive) |
| Cc1ccc2sc(O)nc2c1 | 19.7 µM (active) | – | – |
| Cc1c(OCC(=O)NCc2ccccn2)ccc2c3c(c(=O)oc12)CCCC3 | 21.2 µM (active) | – | – |
| CCOc1ccc(NC2c3ccccc3C(=O)N2Cc2ccc3c(c2)OCO3)cc1 (stereo not drawn) | 14.6 µM (active) | – | – |
| COC(=O)N1CCC[C@@]2(CCN(c3ccccn3)C2)C1 | – | 20 µM (inconclusive) | AC50 (Cytochrome P450 2C19): 39.8 µM (inconclusive) |
| CCCS(=O)(=O)N1CCCC(C(=O)NCCCN2CCN(c3cccc(Cl)c3)CC2)C1 (stereo not drawn) | – | 28.2 µM (inconclusive) | AC50 (Cytochrome P450 2C19): 14.1 µM (inconclusive); AC50 (Cytochrome P450 1A2): 0.00631 µM (inconclusive) |
| N#Cc1nc(COc2ccccc2Cl)oc1N1CCCC1 | 41.5 µM (active) | – | – |
| COc1ccccc1Cn1c(=S)[nH]c2cc(C(=O)N3CCN(C)CC3)ccc2c1=O | – | 0.112 µM (inconclusive) | AC50 (Cytochrome P450 2C19): 39.8 µM (inconclusive) |
| Cc1cc(C)c(S(=O)(=O)n2ccc(-c3ccc(OCCN(C)c4ccccn4)cc3)n2)c(C)c1 | – | 1.78 µM (inconclusive) | AC50 (Cytochrome P450 2C19): 0.631 µM (inconclusive); AC50 (Cytochrome P450 1A2): 14.1 µM (inconclusive); EC50 [5]: > 260 µM (inactive) |
| O=S(=O)(O)c1cc(O)c2c(O)c(/N=N\c3cccc4ccccc34)c(S(=O)(=O)O)cc2c1 | – | 7.94 µM (inconclusive) | – |
| Cc1nc2ccc3nc(NC(=O)C4COc5ccccc5O4)sc3c2s1 (stereo not drawn) | 41.4 µM (active) | – | – |
| Cc1nc(SCc2ccccc2F)c2cnn(-c3ccccc3)c2n1 | 28.5 µM (active) | – | – |
| COC(=O)N1CCC2(CCCN(c3ccccn3)C2)CC1 | – | 31.6 µM (inconclusive) | AC50 (Cytochrome P450 1A2): 25.1 µM (inconclusive); AC50 (Cytochrome P450 2D6): 39.8 µM (inconclusive) |
| COc1ccccc1NC(=O)COc1ccc(Br)cc1CO | > 50 µM (active) | – | – |
| CCc1ccccc1NS(=O)(=O)c1ccc(OC)c2ncccc12 | 16 µM (active) | – | – |
| CCC(=O)Nc1cc(-c2nn(C)c(=O)c3ccccc23)ccc1N1CCCCC1 | – | 5.01 µM (inconclusive) | AC50 (Cytochrome P450 1A2): 28.2 µM (inconclusive); AC50 (Cytochrome P450 2D6): 11.2 µM (inconclusive) |
| O=C1NC(=O)N(c2ccc(Br)cc2)C(=O)/C1=C/NCCN1CCCCC1 | – | – | EC50 [6]: 106 µM (active); EC50 [7]: > 300 µM (not active) |
| COc1ccc2c(c1)C(=O)N(c1ccccc1)C(=O)C2 | – | 22.4 µM (inconclusive) | AC50 (Cytochrome P450 1A2): 25.1 µM (inconclusive) |
| COc1ccc(C2C(C(=O)N3CCOCC3)c3ccccc3C(=O)N2c2ccc(OC)cc2)cc1 (stereo not drawn) | – | 0.501 µM (inconclusive) | – |
| COC(=O)c1cc2sc(Cl)cc2n1CC(=O)Nc1ccc(OC)c(OC)c1OC | – | – | EC50 [4]: > 53 µM (inactive) |
